Assay results taken from patent publication US20170298051A1, “ACTIVATOR OF ADIPONECTIN RECEPTOR” (THE UNIVERSITY OF TOKYO, priority 2013, published 2017).

Columns and labels:
rhodopsin receptor = assay: Surface plasmon resonance, rhodopsin receptor control; format: binding; details: SPR
[1] = Measurement of plasma concentrations of AdipoRon; format: in vivo, C57BL/6 mice; details: C57BL/6, mouse, C57B6 WT mice, oral 50 mg/kg, read-out: maximal concentration (Cmax) in plasma
Description: We measured the plasma concentrations of AdipoRon by HPLC and TSQ Quantum Ultra (ThermoFisher) in C57BL/6 mice orally administered with 50 mg of AdipoRon per kg bodyweight. For quantitative analyses, 20 μl of plasma was mixed with acetonitrile. The mixture was mixed vigorously for 30 sec and then centrifuged at 10,000 rpm for 3 min at 4° C. An aliquot of the supernatant was injected into the quantitative LC/MS system. Quantitative analyses were performed using an Accela HPLC system (ThermoFisher). The liquid chromatographic separations were carried out by using syncronis C18, 150×2.1 mm, 3 μm. Column temperature was held at 40° C. The flow rate was 0.2 ml/min. Elution solvent A was 0.1% formic acid in water and solvent B was 0.1% formic acid in methanol. The chromatographic conditions were as follows: 0-5 min 45% A/55% B; 5-6.5 min 5% A/95%B, 6.5-10 min 45%A/55%B. A typical injection volume was 3 μl. Quantitative analyses were performed using a TSQ Quantum Ultra triple-stage quadrupole mass spectrometer. Electro-spray ionization in positive ion mode (ESI+) was used for ionization and selective reaction monitoring (SRM) mode was chosen for detection. The optimized precursor ions pairs were m/z 429.251→91.057 for AdipoRon. […]

[2] = test system: HF diet-induced obese mice; assay: Oral glucose tolerance test and insulin tolerance in HF diet-induced obese mice; format: in vivo; details: WT mice on HF diet, oral 50 mg/kg, 10 days
Description: The original Adipor1^+/−/Adipor2^+/− mice (C57BL/6 and 129/Sv mixed background)^a were backcrossed with C57B1/6 mice more than seven times. All experiments in this study were conducted on male littermates.
Mice were 6-10 week of age at the time of the experiment. They were housed in cages and maintained on a 12 hr light-dark cycle.
Plasma glucose levels were determined by using a glucose B-test (Wako Pure Chemical Industries). Plasma insulin was measured with an insulin immunoassay (Shibayagi). Plasma NEFAs (Wako Pure Chemical Industries) were assayed by enzymatic methods.
The oral glucose tolerance test (OGTT) and insulin tolerance test (ITT) were conducted as previously described^a,b with slight modifications. The areas of the glucose and insulin curves were calculated by multiplying the cumulative mean height of the glucose values (1 mg/ml=1 cm) and insulin values (1 ng/ml=1 cm), respectively, by time (60 min=1 cm)^c,a. The insulin resistance index was calculated from the product of the areas of glucose and insulin×10^−2 in the glucose tolerance test. The results are expressed as the percentage of the value respect to control littermates.

[3] = test system: AdipoR1-AMPK pathway and AdipoR2-PPARα pathway in the liver; assay: Liver: gene expression, TG content, TBARS in mice fed a HF diet; format: in vivo
Description: (§1) Real-time PCR was carried out according to the method described previously^a,b,c. Total RNA was prepared from cells or tissues with Trizol (Invitrogen) according to the manufacturer's instructions. We used a real-time PCR method to quantify the mRNAs^19, with slight modifications.
(§2) Skeletal muscle homogenates were extracted, and tissue triglyceride content was determined as described previously^a-c, with some modifications. To investigate whether oxidative stress was increased, we measured lipid peroxidation, a marker of oxidative injury, as represented by plasma thiobarbituric acid reactive substance (TBARS) as described previously^4. Briefly, tissue samples were homogenized in a buffer solution containing 50 mM Tris-HCl (pH 7.4) and 1.15% KCl, and then centrifuged. The supernatant was used for the assay. The levels of lipid peroxidation in tissue homogenate and plasma were measured in terms of the amount of TBARS using the LPO test (Wako Pure Chemical Industries).

[4] = test system: white adipose tissue (WAT); assay: White adipose tissue (WAT): inflammation and macrophage markers in mice fed a HF diet; format: in vivo
Description: as §1, §2

AdipoR1 = molecular target: T1, AdipoR1 (Homo sapiens, UniProt Q96A54); assay: Surface plasmon resonance, affinity for AdipoR1; format: binding; set-up: made in house; details: SPR
T1 sequence (Q96A54 1-375): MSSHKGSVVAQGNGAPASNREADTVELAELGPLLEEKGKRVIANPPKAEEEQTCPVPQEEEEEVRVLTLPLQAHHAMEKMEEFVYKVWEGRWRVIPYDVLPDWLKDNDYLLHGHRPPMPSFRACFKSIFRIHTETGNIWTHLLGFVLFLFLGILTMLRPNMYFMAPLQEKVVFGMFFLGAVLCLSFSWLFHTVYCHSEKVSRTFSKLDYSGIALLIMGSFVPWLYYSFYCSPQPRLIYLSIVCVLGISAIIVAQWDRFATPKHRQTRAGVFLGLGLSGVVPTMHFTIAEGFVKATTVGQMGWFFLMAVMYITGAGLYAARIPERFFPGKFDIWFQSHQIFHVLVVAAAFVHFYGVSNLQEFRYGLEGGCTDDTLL
Description: Surface plasmon resonance measurements were performed by a BIAcore X100 system (GE Healthcare) and sensor chip SA (GE Healthcare). Human AdipoR1 and AdipoR2 were expressed with the baculovirus system, and purified to homogeneity. The AdipoR1 and AdipoR2 samples were then reconstituted into egg-phosphatidylcholine liposomes containing biotinyl phosphatidylethanolamine (Avanti), as previously reported^a. Mouse full-length adiponectin was generated as previously described^b,c,d,e. AdipoR1 and AdipoR2 were immobilized onto a sensor chip SA to levels of 2,500-3,000 response units (RU) using standard immobilization protocols (GE Healthcare).
Experiments were performed at 25° C. using AdipoRon (0.49-31.25 μM) and adiponectin (1.5 ng-3.75 μg) and using electrophoresis buffer (20 mM Hepes (pH 7.4), 200 mM NaCl, 10% glycerol, […] surfactant P20). Biacore X100 Evaluation Software was used to determine the equilibrium dissociation constant (KD) of the compound or proteins.

[5] = Adipor1/r2 double-knockout mice fed with a HF diet

For `O=C(COc1ccc(C(=O)c2ccccc2)cc1)NC1CCN(Cc2ccccc2)CC1` [Compound 73, 2-(4-benzoyl-phenoxy)-N-(1-benzylpiperidin-4-yl)acetamide], the “reaction with rhodopsin receptor (control)” value (rhodopsin receptor) was “does not react a rhodopsin receptor at all”, the Cmax [1] was 11.8 µM and the “fasting plasma glucose and insulin levels, glucose and insulin responses during OGTT” value [2] was “significant decrease”. The insulin sensitivity [2] was “improved insulin sensitivity”, the “effect on TG content and TBARS in the liver” value [3, 5] was “such effect was not observed” and the “expression level of genes encoding pro-inflammatory cytokines in the liver” value [3, 5] was “such effect was not observed”. The “expressions of Ppargc1a and G6pc in the liver” value [3, 5] was “such effect was not observed”, the “expression levels of Pparα and its target genes (Acox1, Ucp2, Cat) in the liver” value ([3]; WT mice fed a HF diet) was “increased the expression levels” and the “TG content in the liver” value ([3]; WT mice fed with a HF diet) was “significantly reduced TG content”. For the same compound, the “expression level of genes encoding pro-inflammatory cytokines (Tnf, Ccl2) in the liver” value ([3]; WT mice fed with a HF diet) was “reduced the expression level”, the “expressions of Ppargc1a and G6pc in the liver” value ([3]; WT mice fed with a HF diet) was “significantly decreased the expressions” and the “oxidative stress, as measured by TBARS, in the liver” value ([3]; WT mice fed with a HF diet) was “significantly reduced”. The “changes of macrophage markers in the WAT” value ([4]; Adipor1/r2 double-knockout mice) was “these changes were not observed”, the “expression levels of genes encoding pro-inflammatory cytokines in the WAT” value [4, 5] was “such effect was not observed” and the “expression levels of genes encoding pro-inflammatory cytokines (Tnf, Il6, Ccl2) in the WAT” value ([4]; WT mice fed with a HF diet) was “reduced the expression levels”. The “levels of macrophage markers such as TBARS and F4/80 (Emr1), M1 marker CD11c (Itgax) in the WAT” value ([4]; WT mice fed with a HF diet) was “reduced the levels”, the “levels of markers for alternatively activated M2 macrophages such as CD206 (Mrc1) in the WAT” value ([4]; WT mice fed with a HF diet) was “not affect the levels” and the Rmax (AdipoR1) was 14.6 RU. It also gave a Kd (AdipoR1; 25° C., read-out: equilibrium dissociation constant (KD)) of 1800 nM.
